For this assay, the system named is endogenous Haspin kinase (phosphorylation of Histone H3 on Thr3) in U2OS cells. As to the kind of experiment: H3T3ph immunofluorescence assay in U2OS cells (cellular endogenous Haspin activity). In kind it is cell-based. As to conditions: 2.5 μM compound, 16 h, early mitotic cells; for inhibition at 2.5 µM: Homo sapiens, read-out: Inhibition of endogenous Haspin activity (H3T3 phosphorylation) compared to DMSO control. The method, then:
In order to assess the ability of our most interesting compounds to inhibit cellular endogenous Haspin kinase, we evaluated their effects on the phosphorylation of Histone H3 on Thr3, a bona fide Haspin substrate (Figure 4). We treated osteosarcoma U2OS cells with 2.5 μM of selected compounds for 16 h before quantifying H3T3 phosphorylation by immunofluorescence on early mitotic cells (Figure 4A,B). […] This discrepency could be explained by the inability of this compound to cross the plasma membrane or by reduced stability in a cellular environment.
Ethical approval for this study was obtained (9 July 2025) from DGRI-LabOGM (APPROVAL NUMBER: L1-2373). U2OS cells (purchased from ATCC, Manassas, VA, USA, reference HTB-96) were grown in DMEM medium (Dulbecco’s Modified Eagle Medium, High glucose; GlutaMAX, Life Technologies, Carlsbad, CA, USA) supplemented with 10% fetal bovine serum (Gibco, Grand Island, NY, USA) in a 5% CO2 humidified atmosphere. Cells grown on coverslips were treated for 16 h with each compound or 0.025% DMSO, then fixed with 4% paraformaldehyde in PBS, permeabilized by 0.15% Triton-X100 for 2 min, and blocked for 12 min in 4% BSA in PBS. Immunofluorescence assay was performed using standard protocols with a rabbit anti-phospho-Thr3 Histone H3 and a mouse anti-a-Tubulin (B-5-1-2) obtained from Merck Millipore, Burlington, MA, USA (1/2000 dilution). Coverslips were mounted with Vectashield containing DAPI (Vector Laboratories, Newark, CA, USA). Images were acquired with a Coolsnap HQ2 CCD camera (Photometrics, Tucson, AZ, USA) on a Zeiss Axio microscope (Carl Zeiss, Oberkochen, Germany) using a 63x NA 1.46 objective. Image acquisition and processing were performed using Zen Blue (Carl Zeiss). The H3T3ph signal on chromosomes was normalized against the DAPI signal and analyzed using ImageJ software (NIH, Version 1.54p). Graphs were produced and statistical analysis was performed using GraphPad Prism 10. p-values were determined by t-test; n.s., not significant; **** p ≤ 0.0001.
Figure 4 Evaluation of selected compounds on cellular endogenous Haspin activity. (A) U2OS cells were treated with 2.5 μM of each compound or 1 μM of CHR6494 (CHR) or DMSO for 16 h. Immunofluorescence assay was performed with anti-pH3T3 antibody (green) and anti-a-Tubulin (red); DNA was labelled with DAPI (blue). Representative images of early mitotic cells for each condition are presented. Scale bar: 5 μm. (B) Scatter plot representing H3T3ph/DAPI signal ratio indicative of Haspin activity; n > 17 mitotic cells per condition. n.s., not significant; **** p ≤ 0.0001.

Consider `c1cc2cc3c(-c4cn[nH]c4)c[nH]c3cc2cn1` [Compound 16, 3-(1H-Pyrazol-4-yl)-1H-pyrrolo[3,2-g]isoquinoline], for which the inhibition at 2.5 µM worked out at 77%.

With `COC(=O)/C=C/c1c[nH]c2cc3cnccc3cc12` [Compound 8, Methyl (E)-3-(1H-Pyrrolo[3,2-g]isoquinolin-3-yl)prop-2-enoate], the “Inhibition of endogenous Haspin activity (H3T3 phosphorylation) compared to DMSO control” value was “did not show any significant inhibitory potential”.

In the case of `Nc1ccc(-c2c[nH]c3cc4cnccc4cc23)cn1` [Compound 3, 5-(1H-Pyrrolo[3,2-g]isoquinolin-3-yl)pyridin-2-amine], the inhibition at 2.5 µM was about 43%.

With `c1cc2cc3c(-c4cc[nH]n4)c[nH]c3cc2cn1` [Compound 15, 3-(1H-Pyrazol-3-yl)-1H-pyrrolo[3,2-g]isoquinoline], the inhibition at 2.5 µM came out at 66%.

Consider `c1c[nH]c(-c2c[nH]c3cc4cnccc4cc23)c1` [Compound 17, 3-(1H-Pyrrol-2-yl)-1H-pyrrolo[3,2-g]isoquinoline], for which the inhibition at 2.5 µM is about 43%.

The record behind these values is article PMC12655252, “Synthesis of 1H-Pyrrolo[3,2-g]isoquinoline Derivatives as Ligands Targeting Haspin Kinase” (Molecules, 2025).
